Source: PubChem BioAssay AID258 (DTP/NCI, 2004)
Where “and” joins values, the source holds several entries; their conditions need not be identical. Equal values may be shown once. Toxic doses and inconclusive results are not listed.

Tested on: CD2F1 mice, L1210 leukemia sc, survival T/C
Experiment: NCI In Vivo Anticancer Drug Screen. Data for tumor model L1210 Leukemia (subcutaneous) in CD2F1 (CDF1) mice
Conditions: higher = longer survival
How it was run: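 Antitumor activity is scored in tumor-bearing mice by comparing survival or tumor size of treated animals against vehicle-treated controls, reported as T/C.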

`CN(Cc1cnc2nc(N)nc(N)c2n1)c1ccc(C(=O)N[C@@H](CCC(=O)O)C(=O)O)cc1` was tested, and the T/C (endpoint: mean survival time, dose: 1.08 mg/kg/injection, schedule: Q01DX009 (sc), vehicle: other) was 170 % of control, the T/C (endpoint: mean survival time, dose: 1.8 mg/kg/injection, schedule: Q01DX009 (sc), vehicle: other) was 158 % of control and the T/C (endpoint: mean survival time, dose: 3.0 mg/kg/injection, schedule: Q01DX009 (sc), vehicle: other) was 168 % of control. The T/C (endpoint: mean survival time, dose: 5.0 mg/kg/injection, schedule: Q01DX017 (sc), vehicle: other) was 124 % of control, the T/C (endpoint: median survival time, dose: 0.08 mg/kg/injection, schedule: Q## X Z (sc), vehicle: other) was 155 % of control and the T/C (endpoint: median survival time, dose: 0.1 mg/kg/injection, schedule: Q#A X Z (oral), vehicle: other) was 104 % of control. The T/C (endpoint: median survival time, dose: 0.1 mg/kg/injection, schedule: Q#A X Z (sc), vehicle: other) was 122 % of control, the T/C (endpoint: median survival time, dose: 0.14 mg/kg/injection, schedule: Q## X Z (sc), vehicle: other) was 155 % of control and the T/C (endpoint: median survival time, dose: 0.16 mg/kg/injection, schedule: Q#A X Z (oral), vehicle: other) was 109 % of control. The T/C (endpoint: median survival time, dose: 0.23 mg/kg/injection, schedule: Q#A X Z (sc), vehicle: other) was 122 % of control, the T/C (endpoint: median survival time, dose: 0.25 mg/kg/injection, schedule: Q01DX Z (sc), vehicle: other) was 112 % of control and 116 % of control and the T/C (endpoint: median survival time, dose: 0.27 mg/kg/injection, schedule: Q01DX Z (oral), vehicle: other) was 109 % of control. For the same compound, the T/C (endpoint: median survival time, dose: 0.27 mg/kg/injection, schedule: Q#A X Z (oral), vehicle: other) was 122 % of control, the T/C (endpoint: median survival time, dose: 0.3 mg/kg/injection, schedule: Q01DX Z (sc), vehicle: sodium bicarbonate) was 111 % of control and the T/C (endpoint: median survival time, dose: 0.38 mg/kg/injection, schedule: Q01DX009 (ip), vehicle: sodium bicarbonate) was 108 % of control. For the same compound, the T/C (endpoint: median survival time, dose: 0.39 mg/kg/injection, schedule: Q01DX Z (ip), vehicle: other) was 115 % of control, the T/C (endpoint: median survival time, dose: 0.39 mg/kg/injection, schedule: Q01DX Z (iv), vehicle: other) was 105 % of control and the T/C (endpoint: median survival time, dose: 0.39 mg/kg/injection, schedule: Q01DX Z (oral), vehicle: other) was 100 % of control. For the same compound, the T/C (endpoint: median survival time, dose: 0.39 mg/kg/injection, schedule: Q02DX Z (sc), vehicle: other) was 111 % of control, the T/C (endpoint: median survival time, dose: 0.45 mg/kg/injection, schedule: Q01DX Z (oral), vehicle: other) was 100 % of control and the T/C (endpoint: median survival time, dose: 0.45 mg/kg/injection, schedule: Q#A X Z (sc), vehicle: other) was 159 % of control. For the same compound, the T/C (endpoint: median survival time, dose: 0.47 mg/kg/injection, schedule: Q01DX Z (oral), vehicle: other) was 111 % of control, the T/C (endpoint: median survival time, dose: 0.48 mg/kg/injection, schedule: Q01DX Z (oral), vehicle: other) was 100 % of control and the T/C (endpoint: median survival time, dose: 0.5 mg/kg/injection, schedule: Q01DX009 (ip), vehicle: sodium bicarbonate) was 112 % of control. The T/C (endpoint: median survival time, dose: 0.62 mg/kg/injection, schedule: Q01DX Z (sc), vehicle: other) was 160 % of control, the T/C (endpoint: median survival time, dose: 0.65 mg/kg/injection, schedule: Q01DX009 (sc), vehicle: other) was 152 % of control and the T/C (endpoint: median survival time, dose: 0.65 mg/kg/injection, schedule: Q01DX009 (sc), vehicle: sodium bicarbonate) was 150 % of control. For the same compound, the T/C (endpoint: median survival time, dose: 0.65 mg/kg/injection, schedule: Q01DX Z (iv), vehicle: other) was 111 % of control, the T/C (endpoint: median survival time, dose: 0.65 mg/kg/injection, schedule: Q01DX Z (oral), vehicle: other) was 105 % of control and the T/C (endpoint: median survival time, dose: 0.65 mg/kg/injection, schedule: Q02DX Z (sc), vehicle: other) was 105 % of control. The T/C (endpoint: median survival time, dose: 0.65 mg/kg/injection, schedule: Q## X Z (sc), vehicle: other) was 122 % of control, the T/C (endpoint: median survival time, dose: 0.65 mg/kg/injection, schedule: Q#A X Z (sc), vehicle: other) was 161 % of control and the T/C (endpoint: median survival time, dose: 0.75 mg/kg/injection, schedule: Q01DX009 (ip), vehicle: sodium bicarbonate) was 113 % of control. The T/C (endpoint: median survival time, dose: 0.75 mg/kg/injection, schedule: Q01DX Z (ip), vehicle: water) was 175 % of control, the T/C (endpoint: median survival time, dose: 0.76 mg/kg/injection, schedule: Q01DX Z (oral), vehicle: other) was 122 % of control and the T/C (endpoint: median survival time, dose: 0.76 mg/kg/injection, schedule: Q#A X Z (oral), vehicle: other) was 150 % of control. The T/C (endpoint: median survival time, dose: 0.79 mg/kg/injection, schedule: Q01DX Z (oral), vehicle: other) was 105 % of control, the T/C (endpoint: median survival time, dose: 1.08 mg/kg/injection, schedule: Q01DX009 (sc), vehicle: sodium bicarbonate) was 171 % of control and the T/C (endpoint: median survival time, dose: 1.08 mg/kg/injection, schedule: Q01DX Z (oral), vehicle: other) was 110 % of control. For the same compound, the T/C (endpoint: median survival time, dose: 1.25 mg/kg/injection, schedule: Q01DX Z (sc), vehicle: other) was 180 % of control, the T/C (endpoint: median survival time, dose: 1.26 mg/kg/injection, schedule: Q01DX Z (oral), vehicle: other) was 168 % of control and 181 % of control and the T/C (endpoint: median survival time, dose: 1.26 mg/kg/injection, schedule: Q01DX Z (sc), vehicle: other) was 181 % of control. For the same compound, the T/C (endpoint: median survival time, dose: 1.26 mg/kg/injection, schedule: Q#A X Z (oral), vehicle: other) was 118 % of control, the T/C (endpoint: median survival time, dose: 1.3 mg/kg/injection, schedule: Q01DX Z (oral), vehicle: other) was 166 % of control and the T/C (endpoint: median survival time, dose: 1.31 mg/kg/injection, schedule: Q01DX Z (oral), vehicle: other) was 111 % of control. The T/C (endpoint: median survival time, dose: 1.4 mg/kg/injection, schedule: Q01DX Z (sc), vehicle: sodium bicarbonate) was 183 % of control, the T/C (endpoint: median survival time, dose: 1.8 mg/kg/injection, schedule: Q01DX009 (sc), vehicle: other) was 161 % of control and the T/C (endpoint: median survival time, dose: 1.8 mg/kg/injection, schedule: Q01DX009 (sc), vehicle: sodium bicarbonate) was 174 % of control and 177 % of control. The T/C (endpoint: median survival time, dose: 1.8 mg/kg/injection, schedule: Q01DX Z (ip), vehicle: other) was 175 % of control, the T/C (endpoint: median survival time, dose: 1.8 mg/kg/injection, schedule: Q## X Z (sc), vehicle: other) was 111 % of control and the T/C (endpoint: median survival time, dose: 2.0 mg/kg/injection, schedule: Q01DX Z (sc), vehicle: other) was 175 % of control and 177 % of control and 183 % of control. The T/C (endpoint: median survival time, dose: 2.08 mg/kg/injection, schedule: Q01DX Z (sc), vehicle: other) was 170 % of control, the T/C (endpoint: median survival time, dose: 2.1 mg/kg/injection, schedule: Q01DX Z (oral), vehicle: other) was 163 % of control and the T/C (endpoint: median survival time, dose: 2.1 mg/kg/injection, schedule: Q01DX Z (sc), vehicle: other) was 168 % of control. The T/C (endpoint: median survival time, dose: 2.33 mg/kg/injection, schedule: Q01DX Z (sc), vehicle: sodium bicarbonate) was 155 % of control, the T/C (endpoint: median survival time, dose: 2.5 mg/kg/injection, schedule: Q01DX Z (sc), vehicle: other) was 155 % of control and the T/C (endpoint: median survival time, dose: 3.0 mg/kg/injection, schedule: Q01DX009 (ip), vehicle: saline with Tween-80) was 173 % of control. For the same compound, the T/C (endpoint: median survival time, dose: 3.0 mg/kg/injection, schedule: Q01DX009 (sc), vehicle: other) was 179 % of control, the T/C (endpoint: median survival time, dose: 3.0 mg/kg/injection, schedule: Q01DX009 (sc), vehicle: sodium bicarbonate) was 183 % of control and the T/C (endpoint: median survival time, dose: 3.0 mg/kg/injection, schedule: Q01DX Z (ip), vehicle: other) was 150 % of control. The T/C (endpoint: median survival time, dose: 3.0 mg/kg/injection, schedule: Q01DX Z (ip), vehicle: sodium bicarbonate) was 105 % of control, the T/C (endpoint: median survival time, dose: 3.0 mg/kg/injection, schedule: Q01DX Z (ip), vehicle: water) was 120 % of control and the T/C (endpoint: median survival time, dose: 3.0 mg/kg/injection, schedule: Q01DX Z (iv), vehicle: other) was 155 % of control. The T/C (endpoint: median survival time, dose: 3.0 mg/kg/injection, schedule: Q01DX Z (oral), vehicle: other) was 170 % of control, the T/C (endpoint: median survival time, dose: 3.0 mg/kg/injection, schedule: Q## X Z (sc), vehicle: other) was 111 % of control and the T/C (endpoint: median survival time, dose: 3.25 mg/kg/injection, schedule: Q01DX Z (sc), vehicle: other) was 158 % of control. The T/C (endpoint: median survival time, dose: 3.47 mg/kg/injection, schedule: Q01DX Z (sc), vehicle: other) was 150 % of control, the T/C (endpoint: median survival time, dose: 3.5 mg/kg/injection, schedule: Q01DX Z (sc), vehicle: other) was 163 % of control and the T/C (endpoint: median survival time, dose: 3.5 mg/kg/injection, schedule: Q03DX Z (oral), vehicle: other) was 100 % of control. The T/C (endpoint: median survival time, dose: 3.5 mg/kg/injection, schedule: Q#A X Z (oral), vehicle: other) was 109 % of control, the T/C (endpoint: median survival time, dose: 4.0 mg/kg/injection, schedule: Q01DX009 (ip), vehicle: saline with Tween-80) was 168 % of control and the T/C (endpoint: median survival time, dose: 4.0 mg/kg/injection, schedule: Q01DX009 (ip), vehicle: saline) was 184 % of control. The T/C (endpoint: median survival time, dose: 4.0 mg/kg/injection, schedule: Q01DX Z (sc), vehicle: other) was 150 % of control and 155 % of control, the T/C (endpoint: median survival time, dose: 5.0 mg/kg/injection, schedule: Q01DX009 (sc), vehicle: sodium bicarbonate) was 116 % of control and 120 % of control and the T/C (endpoint: median survival time, dose: 5.0 mg/kg/injection, schedule: Q01DX017 (sc), vehicle: other) was 122 % of control. The T/C (endpoint: median survival time, dose: 5.0 mg/kg/injection, schedule: Q## X Z (sc), vehicle: other) was 111 % of control, the T/C (endpoint: median survival time, dose: 5.83 mg/kg/injection, schedule: Q01DX Z (oral), vehicle: other) was 118 % of control and the T/C (endpoint: median survival time, dose: 5.83 mg/kg/injection, schedule: Q03DX Z (oral), vehicle: other) was 100 % of control. The T/C (endpoint: median survival time, dose: 8.33 mg/kg/injection, schedule: Q01DX Z (iv), vehicle: other) was 120 % of control, the T/C (endpoint: median survival time, dose: 8.33 mg/kg/injection, schedule: Q01DX Z (oral), vehicle: other) was 150 % of control and the T/C (endpoint: median survival time, dose: 8.4 mg/kg/injection, schedule: Q## X Z (sc), vehicle: other) was 122 % of control. The T/C (endpoint: median survival time, dose: 9.72 mg/kg/injection, schedule: Q01DX Z (oral), vehicle: other) was 118 % of control, the T/C (endpoint: median survival time, dose: 14.0 mg/kg/injection, schedule: Q## X Z (sc), vehicle: other) was 122 % of control and the T/C (endpoint: median survival time, dose: 16.2 mg/kg/injection, schedule: Q03DX Z (oral), vehicle: other) was 113 % of control. The T/C (endpoint: median survival time, dose: 23.0 mg/kg/injection, schedule: Q01DX001 (sc), vehicle: other) was 122 % of control, the T/C (endpoint: median survival time, dose: 23.0 mg/kg/injection, schedule: Q## X Z (sc), vehicle: other) was 122 % of control and the T/C (endpoint: median survival time, dose: 65.0 mg/kg/injection, schedule: Q07DX Z (sc), vehicle: other) was 150 % of control. For the same compound, the T/C (endpoint: median survival time, dose: 108.0 mg/kg/injection, schedule: Q01DX001 (sc), vehicle: other) was 122 % of control, the T/C (endpoint: median survival time, dose: 108.0 mg/kg/injection, schedule: Q07DX Z (sc), vehicle: other) was 122 % of control and the T/C (endpoint: median survival time, dose: 180.0 mg/kg/injection, schedule: Q01DX001 (sc), vehicle: other) was 116 % of control. The T/C (endpoint: median survival time, dose: 400.0 mg/kg/injection, schedule: Q01DX009 (ip), vehicle: sodium bicarbonate) was 158 % of control.
